The record followed here is BindingDB's records for doi:10.1074/jbc.M113.493767 (Novartis Institute For Tropical Diseases, 2013).

Numbered stars: 1 amine (or outer) side, 2 acyl side, 3 side chain; on linkers, the order of the positions; unused ones are H or OH. Square brackets hold non-standard residues; d marks the D form. Peptide text beside a SMILES is read from it. X1 = CC(C)([C@@H](O)CNCCCN)n1cc([C@@H](O)[C@H](N[*:1])C(=O)[*:2])c2ccccc21; Ala(3R-Me,3-isobutenyl) = CC(C)=C[C@@H](C)[C@H](N)C(=O)O; NMeLeu(5-OH,4R) = CN[C@@H](C[C@@H](C)CO)C(=O)O; Phe(βR-OMe) = CO[C@H](c1ccccc1)[C@H](N)C(=O)O; NMeL = CN[C@@H](CC(C)C)C(=O)O

The assay deals with ATP-dependent Clp protease ATP-binding subunit ClpC1 (Mycobacterium tuberculosis (strain ATCC 25618 / H37Rv), UniProt P9WPC9). As to the kind of experiment: Isothermal Titration Calorimetry (ITC). Conditions: pH 7.5; 25 °C. The procedure:
Isothermal titration calorimetry experiments were performed using an iTC200 (GEHealthcare) at 25 °C, with 15-20 μM ClpC1 (in 20 mM Tris-HCl, pH 7.5, 300 mM NaCl, 1 mM EDTA, 1 mM Tris(2-carboxyethyl) phosphine, 9% DMSO) in the sample cell. Typically, 19 injections of 2 μl of 150-200 μM CymA1 solution in the same bufferwere injected into the sample cell at 2.5-min intervals.
Background: Isothermal titration calorimetry measures the heat released or taken up as one component is titrated into another.

ATP-dependent Clp protease ATP-binding subunit ClpC1, sequence (P9WPC9 whole entry): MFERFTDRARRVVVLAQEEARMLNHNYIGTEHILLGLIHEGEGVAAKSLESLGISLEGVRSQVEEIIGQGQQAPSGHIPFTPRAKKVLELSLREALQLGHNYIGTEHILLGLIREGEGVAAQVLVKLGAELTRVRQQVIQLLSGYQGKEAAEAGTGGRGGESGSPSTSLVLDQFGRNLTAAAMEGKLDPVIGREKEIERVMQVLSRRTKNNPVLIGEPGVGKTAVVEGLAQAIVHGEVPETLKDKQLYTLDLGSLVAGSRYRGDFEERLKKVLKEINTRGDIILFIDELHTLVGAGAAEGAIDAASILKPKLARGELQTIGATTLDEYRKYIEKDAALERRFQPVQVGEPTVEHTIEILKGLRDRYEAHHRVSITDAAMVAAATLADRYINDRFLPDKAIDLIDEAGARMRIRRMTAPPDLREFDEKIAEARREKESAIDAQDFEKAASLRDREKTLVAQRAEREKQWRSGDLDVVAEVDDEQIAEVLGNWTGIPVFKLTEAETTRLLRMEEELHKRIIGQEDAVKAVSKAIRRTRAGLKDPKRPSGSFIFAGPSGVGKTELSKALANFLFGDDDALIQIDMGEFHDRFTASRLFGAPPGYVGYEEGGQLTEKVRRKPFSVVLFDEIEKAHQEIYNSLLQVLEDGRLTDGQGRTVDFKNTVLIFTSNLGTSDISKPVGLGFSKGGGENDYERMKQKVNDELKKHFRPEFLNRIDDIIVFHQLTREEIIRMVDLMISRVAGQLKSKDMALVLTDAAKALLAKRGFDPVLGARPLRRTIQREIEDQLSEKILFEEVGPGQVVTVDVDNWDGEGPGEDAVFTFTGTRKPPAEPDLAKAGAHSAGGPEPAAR

On to `CO[C@H](c1ccccc1)[C@@H]1NC(=O)[C@H](C)NC(=O)[C@H](C[C@@H](C)CO)N(C)C(=O)[C@H]([C@H](O)c2cn(C(C)(C)[C@@H](O)CNCCCN)c3ccccc23)NC(=O)[C@H]([C@H](C)C=C(C)C)NC(=O)[C@H](CC(C)C)N(C)C(=O)[C@H](C(C)C)NC1=O` [Cyclomarin A1 (CymA1)] (cyclo(A[Phe(βR-OMe)]V[NMeL][Ala(3R-Me,3-isobutenyl)][X1][NMeLeu(5-OH,4R)])), for which binding was put at a Kd of 0.0175 µM.
